“And” between values parts separate entries of the source, which are not always exact repeats. Identical values can stand only once.
Legend:
[1] = Tissue distribution and metabolism: polyamine content of kidney, liver and pancreas via HPLC; assay type: in vivo, Female CD-1 mice; details: DEHSPM 18.6 mg/kg/d IP x 5 d
Method: The tissue distribution and metabolism of DEHSPM, (HO)2DEHSPM HCl Salt and (HO)2DEHSPM Mesylate Salt in various organs were evaluated utilizing the following protocol:
Tissue Distribution and Metabolism of DEHSPM, (HO)2DEHSPM HCl Salt and (HO)2DEHSPM Mesylate Salt
• 1) DEHSPM, (HO)2DEHSPM HCl salt, and (HO)2DEHSPM mesylate salt were dissolved in sterile normal saline; the pH was not adjusted. • 2) Female CD-1 mice were given the drugs at equimolar dosages intraperitoneally once daily for 5 days. • 3) The animals, n=3-4 per group, were euthanized 4, 8, or 24 h post-last dose. • 4) The kidney, liver, and pancreas were removed and assessed for their polyamine content via HPLC analysis. • 5) The polyamine concentration data (mean±STD) are expressed as nmol/g wet weight of tissue. SPM, spermine; SPD, spermidine; PUT, putrescine; N.D., not determined. • 6) A one-tailed t test assuming unequal variance was performed on the tissue polyamine concentration data. A value of p<0.05 was considered significant.

[2] = mice, three weeks after a seven day schedule; cited from earlier work

DEHSPM concentration ([1]; kidney, 4 h post-last dose): 428 ± 95 nmol/g wet weight of tissue | DEHSPM concentration ([1]; kidney, 8 h post-last dose): 425 ± 82 nmol/g wet weight of tissue | DEHSPM concentration ([1]; kidney, 24 h post-last dose): 260 ± 19 nmol/g wet weight of tissue | DEHSPM concentration ([1]; liver, 4 h post-last dose): 148 ± 46 nmol/g wet weight of tissue | DEHSPM concentration ([1]; liver, 8 h post-last dose): 144 ± 7 nmol/g wet weight of tissue | DEHSPM concentration ([1]; liver, 24 h post-last dose): 79 ± 10 nmol/g wet weight of tissue | DEHSPM concentration ([1]; pancreas, 4 h post-last dose): 330 ± 37 nmol/g wet weight of tissue | DEHSPM concentration ([1]; pancreas, 8 h post-last dose): 339 ± 59 nmol/g wet weight of tissue | DEHSPM concentration ([1]; pancreas, 24 h post-last dose): 284 ± 50 nmol/g wet weight of tissue
SMILES: CCNCCCCNCCCCNCCCCNCC [DEHSPM, Diethylhomospermine, reference compound]
PUT concentration ([1]; kidney, 4 h post-last dose): 0 ± 0 nmol/g wet weight of tissue | SPD concentration ([1]; kidney, 4 h post-last dose): 270 ± 61 nmol/g wet weight of tissue | SPM concentration ([1]; kidney, 4 h post-last dose): 243 ± 49 nmol/g wet weight of tissue | PUT concentration ([1]; kidney, 8 h post-last dose): 0 ± 0 nmol/g wet weight of tissue | SPD concentration ([1]; kidney, 8 h post-last dose): 159 ± 4 nmol/g wet weight of tissue | SPM concentration ([1]; kidney, 8 h post-last dose): 240 ± 52 nmol/g wet weight of tissue | PUT concentration ([1]; kidney, 24 h post-last dose): 0 ± 0 nmol/g wet weight of tissue | SPD concentration ([1]; kidney, 24 h post-last dose): 150 ± 37 nmol/g wet weight of tissue | SPM concentration ([1]; kidney, 24 h post-last dose): 223 ± 61 nmol/g wet weight of tissue | PUT concentration ([1]; liver, 4 h post-last dose): 0 ± 0 nmol/g wet weight of tissue | SPD concentration ([1]; liver, 4 h post-last dose): 540 ± 77 nmol/g wet weight of tissue | SPM concentration ([1]; liver, 4 h post-last dose): 764 ± 49 nmol/g wet weight of tissue | PUT concentration ([1]; liver, 8 h post-last dose): 0 ± 0 nmol/g wet weight of tissue | SPD concentration ([1]; liver, 8 h post-last dose): 710 nmol/g wet weight of tissue and 710 ± 132 nmol/g wet weight of tissue | SPM concentration ([1]; liver, 8 h post-last dose): 899 ± 40 nmol/g wet weight of tissue | PUT concentration ([1]; liver, 24 h post-last dose): 21 ± 15 nmol/g wet weight of tissue | SPD concentration ([1]; liver, 24 h post-last dose): 578 nmol/g wet weight of tissue and 578 ± 150 nmol/g wet weight of tissue | SPM concentration ([1]; liver, 24 h post-last dose): 809 ± 45 nmol/g wet weight of tissue | PUT concentration ([1]; pancreas, 4 h post-last dose): 43 ± 10 nmol/g wet weight of tissue | SPD concentration ([1]; pancreas, 4 h post-last dose): 6054 nmol/g wet weight of tissue and 6054 ± 878 nmol/g wet weight of tissue | SPM concentration ([1]; pancreas, 4 h post-last dose): 1000 nmol/g wet weight of tissue and 1000 ± 124 nmol/g wet weight of tissue | PUT concentration ([1]; pancreas, 8 h post-last dose): 66 ± 33 nmol/g wet weight of tissue | SPD concentration ([1]; pancreas, 8 h post-last dose): 5789 nmol/g wet weight of tissue and 5789 ± 339 nmol/g wet weight of tissue | SPM concentration ([1]; pancreas, 8 h post-last dose): 1033 nmol/g wet weight of tissue and 1033 ± 290 nmol/g wet weight of tissue | PUT concentration ([1]; pancreas, 24 h post-last dose): 62 ± 29 nmol/g wet weight of tissue | SPD concentration ([1]; pancreas, 24 h post-last dose): 5807 nmol/g wet weight of tissue and 5807 ± 262 nmol/g wet weight of tissue | SPM concentration ([1]; pancreas, 24 h post-last dose): 1146 nmol/g wet weight of tissue and 1146 ± 107 nmol/g wet weight of tissue | drug administered remaining in the liver and kidney as drug or metabolites [2]: 35% | drug remaining in the animal in the form of HSPM [2]: 90%
